Target: T1, human RIPK1 (1-375) (Homo sapiens, UniProt Q13546)
T1 construct: human RIPK1 (1-375) gene; GST; made in house; host or cells: Sf-9 insect cells
T1 sequence (Q13546 1-375): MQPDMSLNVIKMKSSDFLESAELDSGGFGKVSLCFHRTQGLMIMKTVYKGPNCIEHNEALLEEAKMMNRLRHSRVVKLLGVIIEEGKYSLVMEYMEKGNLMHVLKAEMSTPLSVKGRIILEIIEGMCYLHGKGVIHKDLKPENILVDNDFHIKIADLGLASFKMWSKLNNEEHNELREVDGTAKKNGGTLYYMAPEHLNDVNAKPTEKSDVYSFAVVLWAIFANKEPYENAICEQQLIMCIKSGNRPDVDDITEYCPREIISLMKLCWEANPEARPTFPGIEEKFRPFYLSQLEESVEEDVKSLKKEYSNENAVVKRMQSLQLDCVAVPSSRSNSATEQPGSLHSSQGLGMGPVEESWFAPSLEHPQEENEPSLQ
Test: Human RIPK1 enzyme inhibitory effect (ADP-Glo Kinase Assay)
Format: biochemical
Details: well without enzyme = 100% inhibition; for inhibition at 10 µM: read-out: human RIPK1 enzyme inhibitory effect at 10 μM (% inhibition), 10 μM test compound; for human RIPK1 enzyme inhibitory effect at 10 μM (% inhibition): 10 μM test compound
Description: Experimental Example 1: Human RIPK1 Enzyme Inhibitory Effect
Enzyme was prepared by transducing human RIPK1 (1-375) gene to Sf-9 insect cells, and purifying using GST affinity column, and enzyme activity evaluation was performed using the enzyme. The enzyme was used after preservation at −70° C. The RIPK1 enzyme inhibitory activity of the test compound was measured using ADP-Glo™ Kinase Assay (Promega) according the following experiment methods. The test compound diluted with assay buffer (25 mM HEPES (pH 7.5), 10 mM MgCl2, 0.01% Tween-20, 2 mM DTT) was added to 384 well plate by each 2 μL. Next, RIPK1 enzyme solution diluted with the assay buffer was added thereto by each 2 μL, and the mixture was incubated at room temperature for 20 min. After the incubation, 0.6 mM ATP solution was added thereto by each 2 μL to initiate an enzyme reaction. The mixture was incubated at room temperature for 120 min, and ADP-Glo solution prepared according to Promega protocol was added to the 384 well plate by each 3 μL, and the reaction was performed at room temperature for 40 min. Then, Kinase-Detection solution was added to the 384 well plate by each 6 μL, and the reaction was performed at room temperature for 40 min. After the reaction, the luminescence intensity was measured by plate reader Envision (PerkinElmer).

| Structure (SMILES) | inhibition at 10 µM [%] | human RIPK1 enzyme inhibitory effect at 10 μM (% inhibition) [%] |
| --- | --- | --- |
| CN1C(=O)[C@@H](N2CCc3cn(CC4CCCOC4)nc3C2=O)COc2ccccc21 (stereo partly drawn) [Example 170, (3S)-5-methyl-3-(7-oxo-2-(tetrahydro-2H-pyran-3-ylmethyl)-2,4,5,7-tetrahydro-6H-pyrazolo[3,4-c]pyridin-6-yl)-2,3-dihydro-1,5-benzoxazepin-4(5H)-one] | 97 |  |
| CN1C(=O)[C@@H](N2CCc3cn(CC4CCOC4)nc3C2=O)COc2ccccc21 (stereo partly drawn) [Example 171, (3S)-5-methyl-3-(7-oxo-2-(tetrahydrofuran-3-ylmethyl)-2,4,5,7-tetrahydro-6H-pyrazolo[3,4-c]pyridin-6-yl)-2,3-dihydro-1,5-benzoxazepin-4(5H)-one] | 88 |  |
| CN1C(=O)[C@@H](N2CCc3c(nn(Cc4ccccc4)c3Cl)C2=O)COc2ccc(C#N)cc21 [Example 145, (3S)-3-(2-benzyl-3-chloro-7-oxo-2,4,5,7-tetrahydro-6H-pyrazolo[3,4-c]pyridin-6-yl)-5-methyl-4-oxo-2,3,4,5-tetrahydro-1,5-benzoxazepine-7-carbonitrile] | 101 |  |
| CNC(=O)c1ccc2c(c1)N(C)C(=O)[C@@H](N1CCc3c(nn(Cc4ccccc4)c3Cl)C1=O)CO2 [Example 89, (3S)-3-(2-benzyl-3-chloro-7-oxo-2,4,5,7-tetrahydro-6H-pyrazolo[3,4-c]pyridin-6-yl)-N,5-dimethyl-4-oxo-2,3,4,5-tetrahydro-1,5-benzoxazepine-7-carboxamide] | 101 |  |
| CN1C(=O)C(N2CCc3c(nn(Cc4ccccc4)c3Cl)C2=O)CCc2c1cnn2C (centres unmarked) [Example 128, 6-(2-benzyl-3-chloro-7-oxo-2,4,5,7-tetrahydro-6H-pyrazolo[3,4-c]pyridin-6-yl)-1,4-dimethyl-4,6,7,8-tetrahydropyrazolo[4,3-b]azepin-5(1H)-one] |  | 84 |
| CN1C(=O)[C@@H](N2CCc3c(nn(Cc4ccccc4)c3Cl)C2=O)COc2cc(-c3cnn(C)c3)ccc21 [Example 107, (3S)-3-(2-benzyl-3-chloro-7-oxo-2,4,5,7-tetrahydro-6H-pyrazolo[3,4-c]pyridin-6-yl)-5-methyl-8-(1-methyl-1H-pyrazol-4-yl)-2,3-dihydro-1,5-benzoxazepin-4(5H)-one] | 100 |  |
| CN1C(=O)[C@@H](N2CCc3c(nn(Cc4ccccc4)c3Cl)C2=O)COc2cc(C(=O)NCCOCCOCCOCCNC(=O)c3ccc4c(c3)OC[C@H](N3CCc5c(nn(Cc6ccccc6)c5Cl)C3=O)C(=O)N4C)ccc21 [Example 174, (3S)-3-(2-benzyl-3-chloro-7-oxo-2,4,5,7-tetrahydro-6H-pyrazolo[3,4-c]pyridin-6-yl)-N-(13-((3S)-3-(2-benzyl-3-chloro-7-oxo-2,4,5,7-tetrahydro-6H-pyrazolo[3,4-c]pyridin-6-yl)-5-methyl-4-oxo-2,3,4,5-tetrahydro-1,5-benzoxazepin-8-yl)-13-oxo-3,6,9-trioxa-12-azatridec-1-yl)-5-methyl-4-oxo-2,3,4,5-tetrahydro-1,5-benzoxazepine-8-carboxamide] | 101 |  |
| CN1C(=O)C(N2CCc3c(nn(Cc4ccccc4)c3Cl)C2=O)CCc2cnccc21 (centres unmarked) [Example 100, 3-(2-benzyl-3-chloro-7-oxo-2,4,5,7-tetrahydro-6H-pyrazolo[3,4-c]pyridin-6-yl)-1-methyl-1,3,4,5-tetrahydro-2H-pyrido[4,3-b]azepin-2-one] |  | 91 |
| CC1Cc2cn(Cc3ccccc3)nc2C(=O)N1[C@H]1COc2ccccc2N(C)C1=O (stereo partly drawn) [Example 68, (3S)-3-(2-benzyl-5-methyl-7-oxo-2,4,5,7-tetrahydro-6H-pyrazolo[3,4-c]pyridin-6-yl)-5-methyl-2,3-dihydro-1,5-benzoxazepin-4(5H)-one] | 100 |  |
| O=C1Nc2ccccc2CCC1N1Cc2cn(Cc3ccccc3)nc2C1=O (centres unmarked) [Example 4, 3-(2-benzyl-6-oxo-2,6-dihydropyrrolo[3,4-c]pyrazol-5(4H)-yl)-1,3,4,5-tetrahydro-2H-1-benzazepin-2-one] | 80 |  |
| CN1C(=O)C(N2CCc3c(nn(Cc4ccccc4)c3Cl)C2=O)CCc2ncccc21 (stereo not drawn) [Example 67, 7-(2-benzyl-3-chloro-7-oxo-2,4,5,7-tetrahydro-6H-pyrazolo[3,4-c]pyridin-6-yl)-5-methyl-5,7,8,9-tetrahydro-6H-pyrido[3,2-b]azepin-6-one (optical isomer)] |  | 73 |
| CN1C(=O)[C@@H](N2CCc3c(nn(Cc4ccccc4)c3Cl)C2=O)COc2cc(C(=O)NC3COC3)ccc21 [Example 118, (3S)-3-(2-benzyl-3-chloro-7-oxo-2,4,5,7-tetrahydro-6H-pyrazolo[3,4-c]pyridin-6-yl)-5-methyl-N-(oxetan-3-yl)-4-oxo-2,3,4,5-tetrahydro-1,5-benzoxazepine-8-carboxamide] | 98 |  |
| CN1C(=O)[C@@H](N2CCn3nc(Cc4ccccc4)nc3C2=O)COc2ccccc21 [Example 8, (3S)-3-(2-benzyl-8-oxo-5,6-dihydro[1,2,4]triazolo[1,5-a]pyrazin-7(8H)-yl)-5-methyl-2,3-dihydro-1,5-benzoxazepin-4(5H)-one] | 98 |  |
| CNC(=O)c1ccc2c(c1)CCC(N1CCc3c(nn(Cc4ccccc4)c3Cl)C1=O)C(=O)N2C (centres unmarked) [Example 137, 3-(2-benzyl-3-chloro-7-oxo-2,4,5,7-tetrahydro-6H-pyrazolo[3,4-c]pyridin-6-yl)-N,1-dimethyl-2-oxo-2,3,4,5-tetrahydro-1H-1-benzazepine-7-carboxamide] |  | 87 |
| CN1C(=O)C(N2CCc3c(nn(Cc4ccccc4F)c3Cl)C2=O)CCc2cnccc21 (centres unmarked) [Example 105, 3-(3-chloro-2-(2-fluorobenzyl)-7-oxo-2,4,5,7-tetrahydro-6H-pyrazolo[3,4-c]pyridin-6-yl)-1-methyl-1,3,4,5-tetrahydro-2H-pyrido[4,3-b]azepin-2-one] | 99 |  |
| CN1C(=O)[C@@H](N2CCc3cn(Cc4c(F)cccc4F)nc3C2=O)COc2cc(C#N)ccc21 [Example 45, (3S)-3-(2-(2,6-difluorobenzyl)-7-oxo-2,4,5,7-tetrahydro-6H-pyrazolo[3,4-c]pyridin-6-yl)-5-methyl-4-oxo-2,3,4,5-tetrahydro-1,5-benzoxazepine-8-carbonitrile] | 101 |  |
| CN1C(=O)C(N2CCc3c(nn(Cc4ccccc4F)c3Cl)C2=O)CCc2c1cnn2C (centres unmarked) [Example 132, 6-(3-chloro-2-(2-fluorobenzyl)-7-oxo-2,4,5,7-tetrahydro-6H-pyrazolo[3,4-c]pyridin-6-yl)-1,4-dimethyl-4,6,7,8-tetrahydropyrazolo[4,3-b]azepin-5(1H)-one] |  | 89 |
| CNC(=O)c1ccc2c(c1)OC[C@H](N1CCc3c(nn(Cc4ccccc4)c3Cl)C1=O)C(=O)N2C [Example 44, (3S)-3-(2-benzyl-3-chloro-7-oxo-2,4,5,7-tetrahydro-6H-pyrazolo[3,4-c]pyridin-6-yl)-N,5-dimethyl-4-oxo-2,3,4,5-tetrahydro-1,5-benzoxazepine-8-carboxamide] | 100 |  |
| CN1C(=O)[C@@H](N2CCc3c(nn(Cc4ccccc4)c3Br)C2=O)COc2ccccc21 [Example 10, (3S)-3-(2-benzyl-3-bromo-7-oxo-2,4,5,7-tetrahydro-6H-pyrazolo[3,4-c]pyridin-6-yl)-5-methyl-2,3-dihydro-1,5-benzoxazepin-4(5H)-one] | 98 |  |
| COCc1ccc2c(c1)OC[C@H](N1CCc3c(nn(Cc4ccccc4)c3Cl)C1=O)C(=O)N2C [Example 141, (3S)-3-(2-benzyl-3-chloro-7-oxo-2,4,5,7-tetrahydro-6H-pyrazolo[3,4-c]pyridin-6-yl)-8-(methoxymethyl)-5-methyl-2,3-dihydro-1,5-benzoxazepin-4(5H)-one] | 100 |  |
| CN1C(=O)[C@@H](N2CCc3cn(Cc4cc(C#N)ccc4F)nc3C2=O)COc2ccccc21 [Example 172, 4-fluoro-3-((6-((3S)-5-methyl-4-oxo-2,3,4,5-tetrahydro-1,5-benzoxazepin-3-yl)-7-oxo-4,5,6,7-tetrahydro-2H-pyrazolo[3,4-c]pyridin-2-yl)methyl)benzonitrile] | 99 |  |
| CN1C(=O)C(N2CCc3c(nn(Cc4ccccc4)c3Cl)C2=O)CCc2cccnc21 (centres unmarked) [Example 94, 7-(2-benzyl-3-chloro-7-oxo-2,4,5,7-tetrahydro-6H-pyrazolo[3,4-c]pyridin-6-yl)-9-methyl-5,6,7,9-tetrahydro-8H-pyrido[2,3-b]azepin-8-one] |  | 101 |
| CN1C(=O)C(N2CCc3c(nn(Cc4ccccc4)c3Cl)C2=O)CCc2cnccc21 (centres unmarked) [Example 99, 3-(2-benzyl-3-chloro-7-oxo-2,4,5,7-tetrahydro-6H-pyrazolo[3,4-c]pyridin-6-yl)-1-methyl-1,3,4,5-tetrahydro-2H-pyrido[4,3-b]azepin-2-one] |  | 98 |

Source: patent publication US10787462B2, “Heterocyclic compound” (TAKEDA PHARMACEUTICAL COMPANY LIMITED, priority 2015, dated 2020)
